Calls of active or inactive are those of the source. No cut-off for these calls is given here.
What was measured:
[1] = test system: Plasma; assay: Metabolic stability in 50% human plasma assessed as aspirin release at pH 7.4 by RP-HPLC; format: ADME, cell-free; note: time not given here
[2] = Antiplatelets aggregatory activity in human platelets rich plasma assessed as inhibition of collagen-induced platelets aggregation by aggregometry; format: functional, cell-free; settings: Platelet
[3] = Metabolic stability in 10% human plasma assessed as half life at pH 7.4 by RP-HPLC
[4] = test system: Plasma; assay: Metabolic stability in 10% human plasma assessed as aspirin release at pH 7.4 by RP-HPLC; format: ADME, cell-free; note: time not given here
[5] = test system: Platelet; assay: Antiplatelets aggregatory activity in human platelets rich plasma assessed as inhibition of ADP-induced platelets aggregation by aggregometry; format: functional, cell-free
[6] = Metabolic stability in 50% human plasma assessed as half life at pH 7.4 by RP-HPLC
[7] = test system: Platelet; assay: Antiplatelets aggregatory activity in washed human platelets assessed as inhibition of ADP-induced platelets aggregation by aggregometry in presence of glutathione; format: functional, cell-based
[8] = test system: Platelet; assay: Antiplatelets aggregatory activity in human platelets rich plasma assessed as inhibition of ADP-induced platelets aggregation by aggregometry in presence of […] ODQ; format: functional, cell-free
[9] = test system: Platelet; assay: Antiplatelets aggregatory activity in washed human platelets assessed as inhibition of ADP-induced platelets aggregation by aggregometry in presence of glutathione and ODQ; format: functional, cell-based
[10] = test system: Plasma; assay: Metabolic stability in 50% human plasma assessed as half life at pH 7.4 by RP-HPLC; format: ADME, cell-free
[11] = test system: Plasma; assay: Metabolic stability in 50% human plasma assessed as half life at pH 7.4 by RP-HPLC in presence of BuChE-inhibitor dibucaine; format: ADME, cell-free
[12] = test system: Plasma; assay: Metabolic stability in 50% human plasma assessed as aspirin release at pH 7.4 by RP-HPLC in presence of BuChE-inhibitor dibucaine; format: ADME, cell-free
[13] = test system: Plasma; assay: Metabolic stability in 50% human plasma assessed as half life at pH 7.4 by RP-HPLC in presence of BuChE-inhibitor isoOMPA; format: ADME, cell-free
[14] = test system: Plasma; assay: Metabolic stability in 50% human plasma assessed as aspirin release at pH 7.4 by RP-HPLC in presence of AChE-inhibitor PMSF; format: ADME, cell-free
[15] = test system: Plasma; assay: Metabolic stability in 50% human plasma assessed as half life at pH 7.4 by RP-HPLC in presence of AChE-inhibitor PMSF; format: ADME, cell-free
[16] = test system: Plasma; assay: Metabolic stability in 50% human plasma assessed as half life at pH 7.4 by RP-HPLC in presence of cholinesterase-inhibitor eserine; format: ADME, cell-free

CC(=O)Oc1ccccc1C(=O)O[C@H]1CO[C@H]2[C@@H]1OC[C@H]2OC(=O)c1ccccc1O
Activity [1]: 85%
IC50 [2]: 20.6 µM
half-life [3]: 4.95 min
Activity [4]: 72%
inhibition [5]: Active
half-life [6]: 1.14 min

COc1cccc(C(=O)O[C@@H]2CO[C@H]3[C@@H]2OC[C@@H]3OC(=O)c2ccccc2OC(C)=O)c1
Activity [1]: 17%
half-life [3]: 3.15 min
Activity [4]: 19%
half-life [6]: 0.85 min

CC(=O)Oc1ccccc1C(=O)O[C@H]1CO[C@H]2[C@@H]1OC[C@H]2OC(C)=O
Activity [1]: 1.3%
half-life [3]: 3.65 min
Activity [4]: 1.2%
half-life [6]: 0.57 min

CC(=O)Oc1ccccc1C(=O)O[C@H]1CO[C@H]2[C@@H]1OC[C@H]2OC(=O)c1cccc(C)c1
Activity [1]: 54%
half-life [3]: 9.9 min
Activity [4]: 38%
half-life [6]: 1.22 min

CC(=O)Oc1ccccc1C(=O)O[C@H]1CO[C@H]2[C@@H]1OC[C@H]2OC(=O)c1ccccc1CO[N+](=O)[O-]
Activity [1]: 34%
IC50 [2]: 90.3 µM
half-life [3]: 2.7 min
Activity [4]: 32%
half-life [6]: 3.2 min

CC(=O)Oc1ccccc1C(=O)O[C@@H]1CO[C@H]2[C@@H]1OC[C@@H]2O[N+](=O)[O-] (racemic)
half-life [3]: 1.3 min

CCCCC(=O)O[C@@H]1CO[C@H]2[C@@H]1OC[C@@H]2OC(=O)c1ccccc1OC(C)=O
Activity [1]: < 0.5%
half-life [3]: 1.19 min
half-life [6]: 0.7 min

CC(=O)Oc1ccccc1C(=O)O[C@H]1CO[C@H]2[C@@H]1OC[C@H]2OC(=O)c1ccccc1
Activity [1]: 29%
half-life [3]: 3.3 min
Activity [4]: 19%
half-life [6]: 0.64 min

CC(=O)Oc1ccccc1C(=O)O[C@H]1CO[C@H]2[C@@H]1OC[C@H]2OC(=O)c1snnc1C
Activity [1]: 31%
half-life [3]: 3.85 min
Activity [4]: 32%
half-life [6]: 0.39 min

CC(=O)Oc1ccccc1C(=O)O[C@H]1CO[C@H]2[C@@H]1OC[C@H]2OC(=O)c1cnccc1Cl
Activity [1]: 17%
half-life [3]: 3.85 min
Activity [4]: 18%
half-life [6]: 1.93 min

CC(=O)Oc1ccccc1C(=O)O[C@H]1CO[C@H]2[C@@H]1OC[C@H]2OC(=O)c1cccc(CO[N+](=O)[O-])c1
Activity [1]: 55%
IC50 [2]: 17.1 µM
inhibition [7]: Active
half-life [3]: 2.6 min
Activity [4]: 51%
inhibition [5]: Active
half-life [6]: 2.7 min
inhibition [8]: inactive
inhibition [9]: inactive

CCC(=O)O[C@@H]1CO[C@H]2[C@@H]1OC[C@@H]2OC(=O)c1ccccc1OC(C)=O
Activity [1]: 7%
half-life [3]: 3.65 min
Activity [4]: 6.8%
half-life [6]: 0.66 min

CC(=O)Oc1ccccc1C(=O)O[C@H]1CO[C@H]2[C@@H]1OC[C@H]2OC(=O)c1cnoc1C
Activity [1]: 14%
half-life [3]: 11.6 min
Activity [4]: 18%
t1/2 [10]: 0.06 min

CC(=O)Oc1ccccc1C(=O)O[C@H]1CO[C@H]2[C@@H]1OC[C@H]2OC(=O)c1ccc(O)cc1
Activity [1]: 0.5%
half-life [3]: 1.19 min
Activity [4]: 1%
half-life [6]: 1.19 min

CC(=O)Oc1ccccc1C(=O)O[C@H]1CO[C@H]2[C@@H]1OC[C@H]2OC(=O)c1ccccc1OC(=O)c1ccccc1
Activity [1]: 19%
half-life [3]: 23.1 min
Activity [4]: 28%
half-life [6]: 4.33 min

CC(=O)Oc1ccccc1C(=O)O[C@H]1CO[C@H]2[C@@H]1OC[C@H]2OC(=O)c1ccc(C#N)cc1
Activity [1]: < 0.5%
half-life [3]: 5.33 min
Activity [4]: 19%
half-life [6]: 4.08 min

CC(=O)Oc1ccccc1C(=O)O[C@H]1CO[C@H]2[C@@H]1OC[C@H]2OC(=O)c1ccc(C)cc1
Activity [1]: 14.7%
half-life [3]: 6.3 min
Activity [4]: 16%
half-life [6]: 2.17 min

CC(=O)Oc1ccccc1C(=O)O[C@H]1CO[C@H]2[C@@H]1OC[C@H]2OC(=O)c1ccncc1
Activity [1]: 27%
half-life [3]: 3.7 min
Activity [4]: 19%
half-life [6]: 0.33 min

CC(=O)Oc1ccccc1C(=O)O[C@H]1CO[C@H]2[C@@H]1OC[C@H]2OC(=O)c1ccc(-c2ccccc2)cc1
Activity [1]: < 0.5%
half-life [3]: > 20 min
Activity [4]: < 0.5%
half-life [6]: > 20 min

CC(=O)Oc1ccccc1C(=O)O[C@H]1CO[C@H]2[C@@H]1OC[C@H]2OC(=O)c1ccc([N+](=O)[O-])cc1
Activity [1]: 22%
half-life [3]: 2.77 min
Activity [4]: 13%
half-life [6]: 1.36 min

CC(=O)Oc1ccccc1C(=O)O[C@H]1CO[C@H]2[C@@H]1OC[C@H]2OC(=O)C1CC1
Activity [1]: < 0.5%
half-life [3]: 1.93 min
Activity [4]: 2%
half-life [6]: 0.9 min

CC(=O)Oc1ccccc1C(=O)O[C@H]1CO[C@H]2[C@@H]1OC[C@H]2OC(=O)c1cccnc1
Activity [1]: 32%
half-life [3]: 1.39 min
Activity [4]: 41%
half-life [6]: 0.37 min

CC(=O)Oc1ccccc1C(=O)O[C@H]1CO[C@H]2[C@@H]1OC[C@H]2OC(=O)c1cc(C)nc(Cl)c1
Activity [1]: 14%
half-life [3]: 1.16 min
Activity [4]: 24%
half-life [6]: 1.16 min

CC(=O)Oc1ccccc1C(=O)O [ASPIRIN]
IC50 [2]: 20.6 µM

CC(=O)Oc1ccccc1C(=O)O[C@H]1CO[C@H]2[C@@H]1OC[C@H]2OC(=O)c1ccccc1C
Activity [1]: 59%
half-life [3]: 2.1 min
Activity [4]: 46%
half-life [6]: 0.83 min

CCOc1cc(OCC)cc(C(=O)O[C@@H]2CO[C@H]3[C@@H]2OC[C@@H]3OC(=O)c2ccccc2OC(C)=O)c1
Activity [1]: < 0.5%
half-life [6]: 1.7 min

CC(=O)Oc1ccccc1C(=O)O[C@H]1CO[C@H]2[C@@H]1OC[C@H]2OC(=O)CO[N+](=O)[O-]
half-life [3]: 3.6 min
half-life [6]: 0.9 min

CC(=O)Oc1ccccc1C(=O)O[C@H]1CO[C@H]2[C@@H]1OC[C@H]2OC(=O)c1ccnn1C
Activity [1]: 6%
half-life [3]: 5.78 min
Activity [4]: 7%
half-life [6]: 3.85 min

CC(=O)Oc1ccccc1C(=O)O[C@H]1CO[C@H]2[C@@H]1OC[C@H]2OC(=O)c1cccc(O)c1
Activity [1]: 29%
half-life [3]: 1.1 min
Activity [4]: 44%
half-life [6]: 0.9 min

CC(=O)Oc1ccccc1C(=O)O[C@H]1CO[C@H]2[C@@H]1OC[C@H]2OC(=O)CCO[N+](=O)[O-]
half-life [3]: 3.9 min
half-life [6]: 1.3 min

COc1ccc(C(=O)O[C@@H]2CO[C@H]3[C@@H]2OC[C@@H]3OC(=O)c2ccccc2OC(C)=O)cc1
Activity [1]: 4%
half-life [3]: 3.15 min
Activity [4]: 2.6%
half-life [6]: 1.1 min

CC(=O)Oc1ccccc1C(=O)O[C@H]1CO[C@H]2[C@@H]1OC[C@H]2O[N+](=O)[O-]
Activity [1]: 7.7%
t1/2 [11]: 4.2 min
half-life [3]: 0.867 min
Activity [4]: 9.1%
Activity [12]: 6.75%
t1/2 [13]: 38.3 min
Activity [14]: 6.2%
half-life [6]: 0.188 min
t1/2 [15]: 2.9 min
t1/2 [16]: 178 min

CC(=O)Nc1cccc(C(=O)O[C@@H]2CO[C@H]3[C@@H]2OC[C@@H]3OC(=O)c2ccccc2OC(C)=O)c1
Activity [1]: 11%
half-life [6]: 3.5 min

COc1ccccc1C(=O)O[C@@H]1CO[C@H]2[C@@H]1OC[C@@H]2OC(=O)c1ccccc1OC(C)=O
Activity [1]: 7%
half-life [3]: 3.47 min
Activity [4]: 5%
half-life [6]: 0.99 min

CC(=O)Oc1ccccc1C(=O)O[C@H]1CO[C@H]2[C@@H]1OC[C@H]2O
Activity [1]: < 0.5%
half-life [3]: 3.3 min
Activity [4]: < 0.5%
half-life [6]: 1.1 min

CC(=O)Oc1ccccc1C(=O)O[C@H]1CO[C@H]2[C@@H]1OC[C@H]2OC(=O)c1ccc(CO[N+](=O)[O-])cc1
Activity [1]: < 1%
IC50 [2]: > 300 µM
half-life [3]: 6 min
Activity [4]: < 5%
half-life [6]: 2.4 min

Source: ChEMBL document CHEMBL1156105 (J Med Chem, 2009)
